One assay deals with prostaglandin receptor. Briefly: Blocking of prostaglandin receptor activity, guinea pig ileum vs Prostaglandin E2. Type of assay: biochemical. The settings on record: for prostaglandin receptor blocking activity (conclusion in words): summary of Table 1. As to the method:
The following compounds were tested for their biological activity in blocking prostaglandin receptor activity. This test is useful in that many kinds of inflammation are at least partially prostaglandin mediated. Table 1 below tabulates the results.
^1 PGE2 : Guinea pig ileum IC50 vs Prostaglandin E2

For a further assay, the target named is T1, prostaglandin synthetase (Bos taurus, UniProt O62664).
T1 construct: enzyme source was bovine; from tissue; host or cells: bovine seminal vesicles
T1 sequence (O62664 25-600): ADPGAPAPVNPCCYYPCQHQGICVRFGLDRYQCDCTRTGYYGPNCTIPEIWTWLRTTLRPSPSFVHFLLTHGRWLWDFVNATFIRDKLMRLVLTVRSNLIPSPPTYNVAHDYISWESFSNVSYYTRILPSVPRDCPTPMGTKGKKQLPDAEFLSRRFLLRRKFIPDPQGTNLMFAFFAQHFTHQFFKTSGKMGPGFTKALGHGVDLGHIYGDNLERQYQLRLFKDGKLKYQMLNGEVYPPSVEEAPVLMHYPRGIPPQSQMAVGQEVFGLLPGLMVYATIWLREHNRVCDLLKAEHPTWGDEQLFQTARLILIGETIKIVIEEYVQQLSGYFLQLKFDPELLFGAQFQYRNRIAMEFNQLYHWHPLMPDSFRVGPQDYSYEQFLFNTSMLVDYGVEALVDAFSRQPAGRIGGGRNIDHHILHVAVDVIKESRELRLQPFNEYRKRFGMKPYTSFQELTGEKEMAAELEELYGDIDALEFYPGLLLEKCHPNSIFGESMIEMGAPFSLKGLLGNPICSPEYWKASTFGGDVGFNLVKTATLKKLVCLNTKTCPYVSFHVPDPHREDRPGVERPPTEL
Nature of the assay: Prostaglandin synthetase inhibition (procedure of Flower et al.). The format is biochemical, bovine. The procedure: Compounds were tested for prostaglandin synthetase inhibition via the procedure of Flower et al. (Prostaglandins 4: 325, 1973).

Assay [1] concerns croton oil-induced rat ear edema. Nature of the assay: Tonelli anti-inflammatory animal test, croton oil-induced rat ear edema. Type of assay: in vivo. To be noted: for % protection at 0.3% / % protection at 1.0% / % protection at 3.0%: croton oil rat ear edema; for potency in reducing edema produced by croton oil (conclusion in words): compared with hydrocortisone, summary of Table 4. The procedure:
The following compounds were tested in the standard Tonelli anti-inflammatory animal test model for their effectiveness in preventing croton oil-induced rat ear edema.

The subject of assay [2] is mouse diarrhea induced by intraperitoneal prostaglandin E2. Briefly: Prevention of mouse diarrhea induced by intraperitoneal prostaglandin E2 injection. The format is in vivo. The settings on record: for ED50: Mus musculus, ip, administered intraperitoneally. As to the method: Compounds 1 and 2 of Table 2 were tested for their effectiveness in preventing mouse diarrhea induced by intraperitoneal prostaglandin E2 injection. The data are summarized below in Table 5:
^1 dose administered i.p.

[3] abbreviates: enzyme source bovine seminal vesicles.

pIC50: −log10 of the molar value. Read-outs that look alike come from different tables or passages of the source.

In the case of `CC(OP(=O)(O)Oc1ccccc1)c1ccc(C2CCCCC2)c(Cl)c1` (stereo not drawn) [Compound 1], the “prostaglandin receptor blocking activity (conclusion in words)” value (shortened to “prostaglandin receptor blocking activity”) in the assay on prostaglandin receptor is “prostaglandin receptor blockers”. This compound also gave a pIC50 against prostaglandin synthetase of 4.74. The “prostaglandin synthetase blocking (conclusion in words)” value on prostaglandin synthetase (compared with indomethacin, summary of Table 3) was “effective blocker of prostaglandin synthetase, comparable in effect to indomethacin”. Besides, in assay [1], the “% protection at 0.3%” value is on record as 0.0%, the “% protection at 1.0%” value was 23.4%, the “% protection at 3.0%” value was found to be 53.8% and the “potency in reducing edema produced by croton oil (conclusion in words)” value is given as “approximately as potent as hydrocortisone”. Besides, in assay [2] (30 Mg/kg i.p.), the “% prevention of diarrhea” value was determined as 0%. In addition, the “% prevention of diarrhea” value in assay [2] (60 Mg/kg i.p.) is recorded as 60%. In assay [2] (100 Mg/kg i.p.), the “% prevention of diarrhea” value was determined as 70%. For the same compound, in assay [2], the ED50 (in general, the dose at which the effect has come halfway, by size or by number of responders) was about 60 mg/kg.

Regarding `CC(COP(=O)(O)Oc1ccccc1)c1ccc(C2CCCCC2)c(Cl)c1` (stereo not drawn) [Compound 2], the “prostaglandin receptor blocking activity” value in the assay on prostaglandin receptor is given as “prostaglandin receptor blockers”. The pIC50 on prostaglandin synthetase is 4.30. Further, in assay [1], the “% protection at 0.3%” value is 15.9%, the “% protection at 1.0%” value is reported as 51.3%, the “% protection at 3.0%” value is reported as 65.4% and the “potency in reducing edema produced by croton oil (conclusion in words)” value is reported as “approximately as potent as hydrocortisone”. Moreover, the “% prevention of diarrhea” value in assay [2] (30 Mg/kg i.p.) is listed as 40%. Moreover, the “% prevention of diarrhea” value in assay [2] (60 Mg/kg i.p.) came to 50%. For the same compound, the “% prevention of diarrhea” value in assay [2] (100 Mg/kg i.p.) was 70%. Moreover, the ED50 in assay [2] was about 60 mg/kg.

For the compound `CC(C(=O)O)c1ccc(C2CCCCC2)c(Cl)c1` (stereo not drawn) [Compound 3], in the assay with prostaglandin receptor (Guinea pig ileum, vs PGE2, at 30 × 10^^-6), the “Guinea pig ileum inhibition vs Prostaglandin E2” value is reported as “No inhibition”. Moreover, the “prostaglandin receptor blocking activity” value in the assay with prostaglandin receptor is “weak or have no prostaglandin-blocking activity”. Also, the pIC50 on prostaglandin synthetase (enzyme source bovine seminal vesicles, read-out: ID50 vs Prostaglandin E2 (prostaglandin synthetase inhibition)) was 5.40 to 5.70.

Take `CC(CO)c1ccc(C2CCCCC2)c(Cl)c1` (stereo not drawn) [Compound 4, reference compound]: in the assay with prostaglandin receptor, the “prostaglandin receptor blocking activity” value was “weak or have no prostaglandin-blocking activity”. Also, the “prostaglandin synthetase inhibition at 50 μM” value at prostaglandin synthetase (setting [3]) is reported as “no inhibition”.

Take `CC(O)c1ccc(C2CCCCC2)c(Cl)c1` (stereo not drawn) [Compound 5, reference compound]: the “prostaglandin synthetase inhibition at 50 μM” value at prostaglandin synthetase (setting [3]) is recorded as “insignificant”.

As to `C[C@]12CCC(=O)C=C1CC[C@@H]1[C@@H]2[C@@H](O)C[C@@]2(C)[C@H]1CC[C@]2(O)C(=O)CO` [hydrocortisone, reference compound], in assay [1], the “% protection at 0.3%” value is reported as 13.8%, the “% protection at 1.0%” value was 45.9% and the “% protection at 3.0%” value is given as 68.7%.
